# Results published in paper PMC11233931, “Remodeling tumor‐associated macrophage for anti‐cancer effects by rational design of irreversible inhibition of mitogen‐activated protein kinase‐activated protein kinase 2” (MedComm, 2024).
# Experiments:
# Assay in all cases: Eurofins kinase selectivity profile against 380 other human recombinant kinases (Table S2)
# Format in all cases: biochemical
# [1] = target: T1, 380 human recombinant protein kinases (Homo sapiens, UniProt O15146); conditions: MuSK(h), read-out: Inhibition rate
# T1 construct: purchased Eurofins (Celle Lévescault)
# T1 sequence (O15146 24-869): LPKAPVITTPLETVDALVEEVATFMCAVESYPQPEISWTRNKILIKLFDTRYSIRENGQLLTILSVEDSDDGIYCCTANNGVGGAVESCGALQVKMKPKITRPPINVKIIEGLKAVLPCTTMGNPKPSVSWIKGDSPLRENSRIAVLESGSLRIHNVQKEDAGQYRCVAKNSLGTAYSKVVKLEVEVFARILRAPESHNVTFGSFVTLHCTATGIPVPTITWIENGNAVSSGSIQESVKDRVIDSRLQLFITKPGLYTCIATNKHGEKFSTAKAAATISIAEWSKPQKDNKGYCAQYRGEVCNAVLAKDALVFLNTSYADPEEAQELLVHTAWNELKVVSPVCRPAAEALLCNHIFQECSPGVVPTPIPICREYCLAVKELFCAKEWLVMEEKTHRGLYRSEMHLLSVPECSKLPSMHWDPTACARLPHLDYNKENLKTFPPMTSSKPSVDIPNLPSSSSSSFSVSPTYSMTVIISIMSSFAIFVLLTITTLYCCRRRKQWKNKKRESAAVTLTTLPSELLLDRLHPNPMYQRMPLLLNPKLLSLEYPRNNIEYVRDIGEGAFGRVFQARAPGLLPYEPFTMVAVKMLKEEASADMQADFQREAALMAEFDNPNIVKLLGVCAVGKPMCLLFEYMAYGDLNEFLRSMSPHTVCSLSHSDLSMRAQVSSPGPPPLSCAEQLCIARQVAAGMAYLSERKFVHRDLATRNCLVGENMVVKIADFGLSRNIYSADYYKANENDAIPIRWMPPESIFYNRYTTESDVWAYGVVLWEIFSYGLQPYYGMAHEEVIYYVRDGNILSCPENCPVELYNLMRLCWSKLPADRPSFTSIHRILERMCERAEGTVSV
# In short: (§1)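 Off-target profiling: one compound assayed by a commercial provider over 380 recombinant human protein kinases at various concentrations.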
# [2] = target: T2, 380 human recombinant protein kinases (Homo sapiens, UniProt P17948); conditions: Flt1(h), read-out: Inhibition rate
# T2 construct: purchased Eurofins (Celle Lévescault)
# T2 sequence (P17948 27-1338): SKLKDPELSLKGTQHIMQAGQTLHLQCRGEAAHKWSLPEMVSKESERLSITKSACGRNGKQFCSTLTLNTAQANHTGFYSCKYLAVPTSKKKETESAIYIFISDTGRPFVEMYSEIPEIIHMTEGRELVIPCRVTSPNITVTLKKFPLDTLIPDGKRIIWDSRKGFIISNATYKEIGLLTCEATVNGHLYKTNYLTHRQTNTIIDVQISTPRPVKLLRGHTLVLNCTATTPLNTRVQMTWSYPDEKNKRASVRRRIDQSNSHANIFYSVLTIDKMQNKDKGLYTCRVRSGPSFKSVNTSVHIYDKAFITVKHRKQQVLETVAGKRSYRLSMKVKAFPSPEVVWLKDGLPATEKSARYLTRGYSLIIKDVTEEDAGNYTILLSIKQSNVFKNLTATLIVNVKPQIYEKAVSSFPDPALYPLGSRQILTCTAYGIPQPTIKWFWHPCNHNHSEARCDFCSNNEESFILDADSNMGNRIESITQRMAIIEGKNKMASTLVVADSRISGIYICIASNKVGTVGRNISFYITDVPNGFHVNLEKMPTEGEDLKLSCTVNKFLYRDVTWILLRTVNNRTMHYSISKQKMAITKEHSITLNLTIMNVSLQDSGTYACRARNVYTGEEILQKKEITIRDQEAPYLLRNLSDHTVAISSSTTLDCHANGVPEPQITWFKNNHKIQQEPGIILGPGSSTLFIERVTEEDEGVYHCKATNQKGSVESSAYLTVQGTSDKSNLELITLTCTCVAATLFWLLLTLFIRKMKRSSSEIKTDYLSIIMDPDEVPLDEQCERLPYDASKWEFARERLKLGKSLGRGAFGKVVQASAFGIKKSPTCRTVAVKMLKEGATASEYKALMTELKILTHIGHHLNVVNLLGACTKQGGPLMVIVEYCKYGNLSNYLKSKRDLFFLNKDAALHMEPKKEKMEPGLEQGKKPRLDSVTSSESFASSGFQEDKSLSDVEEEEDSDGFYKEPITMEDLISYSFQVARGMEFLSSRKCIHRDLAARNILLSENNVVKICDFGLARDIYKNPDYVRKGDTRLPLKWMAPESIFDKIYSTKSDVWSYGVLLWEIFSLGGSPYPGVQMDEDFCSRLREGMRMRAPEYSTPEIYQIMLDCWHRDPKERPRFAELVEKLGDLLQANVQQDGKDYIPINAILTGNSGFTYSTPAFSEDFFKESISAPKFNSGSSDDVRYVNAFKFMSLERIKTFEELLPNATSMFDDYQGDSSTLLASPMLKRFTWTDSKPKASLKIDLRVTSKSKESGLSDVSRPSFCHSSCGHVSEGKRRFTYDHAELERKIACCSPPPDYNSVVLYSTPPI
# In short: as §1
# [3] = target: T3, 380 human recombinant protein kinases (Homo sapiens, UniProt P36896); conditions: ALK4(h), read-out: Inhibition rate
# T3 construct: purchased Eurofins (Celle Lévescault)
# T3 sequence (P36896 24-505): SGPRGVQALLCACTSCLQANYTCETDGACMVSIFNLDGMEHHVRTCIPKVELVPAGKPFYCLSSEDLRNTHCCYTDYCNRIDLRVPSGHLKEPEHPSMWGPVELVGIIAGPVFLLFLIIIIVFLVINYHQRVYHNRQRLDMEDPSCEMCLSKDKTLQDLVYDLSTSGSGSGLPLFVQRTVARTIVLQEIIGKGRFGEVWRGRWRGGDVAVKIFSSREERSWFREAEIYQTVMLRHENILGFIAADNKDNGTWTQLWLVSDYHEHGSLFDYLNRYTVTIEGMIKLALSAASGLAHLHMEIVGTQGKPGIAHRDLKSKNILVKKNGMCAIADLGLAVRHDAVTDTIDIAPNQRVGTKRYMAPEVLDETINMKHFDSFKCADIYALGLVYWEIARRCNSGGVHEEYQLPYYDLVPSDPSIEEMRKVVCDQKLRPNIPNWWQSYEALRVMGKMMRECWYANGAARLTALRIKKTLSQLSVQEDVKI
# In short: as §1
# [4] = target: T4, 380 human recombinant protein kinases (Homo sapiens, UniProt P50750); conditions: CDK9/cyclin T1(h), read-out: Inhibition rate
# T4 construct: purchased Eurofins (Celle Lévescault)
# T4 sequence (P50750 whole entry): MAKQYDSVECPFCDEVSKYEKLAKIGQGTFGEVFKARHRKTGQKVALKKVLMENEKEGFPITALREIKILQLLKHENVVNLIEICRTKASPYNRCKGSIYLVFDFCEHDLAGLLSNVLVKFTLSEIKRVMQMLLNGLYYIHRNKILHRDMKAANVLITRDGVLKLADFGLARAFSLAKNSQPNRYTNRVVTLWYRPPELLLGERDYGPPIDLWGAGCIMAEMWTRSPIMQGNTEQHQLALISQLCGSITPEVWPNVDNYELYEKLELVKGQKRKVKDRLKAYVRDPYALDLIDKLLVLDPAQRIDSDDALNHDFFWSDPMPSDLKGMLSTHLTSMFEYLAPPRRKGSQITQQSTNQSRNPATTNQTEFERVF
# In short: as §1
# [5] = target: T5, 380 human recombinant protein kinases (Homo sapiens, UniProt Q5MAI5); conditions: CDKL4(h), read-out: Inhibition rate
# T5 construct: purchased Eurofins (Celle Lévescault)
# T5 sequence (Q5MAI5 whole entry): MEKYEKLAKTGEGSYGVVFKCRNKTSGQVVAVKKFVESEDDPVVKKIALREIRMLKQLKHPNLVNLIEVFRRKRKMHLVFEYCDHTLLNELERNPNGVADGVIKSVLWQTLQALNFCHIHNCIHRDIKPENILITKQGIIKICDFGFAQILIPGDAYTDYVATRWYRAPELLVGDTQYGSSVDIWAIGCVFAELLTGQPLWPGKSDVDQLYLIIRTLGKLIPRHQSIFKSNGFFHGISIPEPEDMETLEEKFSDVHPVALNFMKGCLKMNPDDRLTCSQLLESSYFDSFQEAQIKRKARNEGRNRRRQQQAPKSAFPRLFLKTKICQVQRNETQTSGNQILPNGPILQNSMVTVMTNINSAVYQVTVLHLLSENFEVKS
# In short: as §1
# [6] = target: T6, 380 human recombinant protein kinases (Homo sapiens, UniProt Q86UE8); conditions: TLK2(h), read-out: Inhibition rate (%)
# T6 construct: purchased Eurofins (Celle Lévescault)
# T6 sequence (Q86UE8 whole entry): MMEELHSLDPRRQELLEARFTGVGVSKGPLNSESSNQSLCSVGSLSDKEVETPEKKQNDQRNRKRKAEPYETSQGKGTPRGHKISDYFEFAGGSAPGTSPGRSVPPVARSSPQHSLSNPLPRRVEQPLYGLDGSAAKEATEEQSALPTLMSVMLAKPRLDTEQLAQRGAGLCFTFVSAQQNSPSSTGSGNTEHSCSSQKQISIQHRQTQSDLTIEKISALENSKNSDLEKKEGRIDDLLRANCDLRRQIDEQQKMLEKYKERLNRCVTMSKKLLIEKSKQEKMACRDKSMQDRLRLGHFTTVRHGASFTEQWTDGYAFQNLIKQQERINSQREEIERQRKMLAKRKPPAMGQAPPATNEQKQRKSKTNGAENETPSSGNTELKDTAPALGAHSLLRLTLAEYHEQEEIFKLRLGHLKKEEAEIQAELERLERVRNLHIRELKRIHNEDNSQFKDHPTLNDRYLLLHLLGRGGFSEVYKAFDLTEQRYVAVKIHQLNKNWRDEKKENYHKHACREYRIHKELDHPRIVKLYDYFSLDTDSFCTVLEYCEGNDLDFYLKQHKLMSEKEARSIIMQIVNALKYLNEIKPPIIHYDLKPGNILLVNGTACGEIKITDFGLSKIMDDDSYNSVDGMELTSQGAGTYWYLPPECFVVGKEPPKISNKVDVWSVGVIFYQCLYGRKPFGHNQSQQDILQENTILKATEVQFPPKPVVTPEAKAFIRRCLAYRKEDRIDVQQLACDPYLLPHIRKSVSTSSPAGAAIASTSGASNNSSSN
# In short: as §1
# [7] = target: T7, 380 human recombinant protein kinases (Homo sapiens, UniProt Q96SB4); conditions: SRPK1(h), read-out: Inhibition rate (%)
# T7 construct: purchased Eurofins (Celle Lévescault)
# T7 sequence (Q96SB4 whole entry): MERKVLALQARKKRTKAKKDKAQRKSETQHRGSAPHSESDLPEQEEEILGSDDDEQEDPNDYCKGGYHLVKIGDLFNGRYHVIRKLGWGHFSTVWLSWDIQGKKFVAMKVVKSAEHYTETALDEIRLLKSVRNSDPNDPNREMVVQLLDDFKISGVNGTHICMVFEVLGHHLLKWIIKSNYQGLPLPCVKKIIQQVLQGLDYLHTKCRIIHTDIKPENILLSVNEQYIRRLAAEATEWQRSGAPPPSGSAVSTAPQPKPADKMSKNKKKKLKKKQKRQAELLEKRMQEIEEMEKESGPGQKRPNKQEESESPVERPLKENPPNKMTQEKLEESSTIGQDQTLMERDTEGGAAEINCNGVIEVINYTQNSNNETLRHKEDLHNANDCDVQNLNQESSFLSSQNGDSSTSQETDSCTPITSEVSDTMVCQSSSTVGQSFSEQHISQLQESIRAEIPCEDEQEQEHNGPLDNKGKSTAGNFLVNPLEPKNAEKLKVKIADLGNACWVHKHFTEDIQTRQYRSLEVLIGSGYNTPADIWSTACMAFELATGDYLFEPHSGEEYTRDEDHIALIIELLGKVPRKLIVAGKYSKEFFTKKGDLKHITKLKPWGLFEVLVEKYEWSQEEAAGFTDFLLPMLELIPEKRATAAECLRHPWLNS
# In short: as §1
# [8] = system: 380 human recombinant protein kinases
# In short: as §1
structure (smiles),measurement,setting,value
C=CC(=O)Nc1cc(-c2cc(-c3cc4c([nH]3)CCNC4=O)ccn2)ccc1OC(F)(F)F [compound 11],inhibition at 0.01 µM,[1]; 10 nM,7%
same,inhibition at 0.1 µM,[1]; 100 nM,7%
same,inhibition at 1 µM,[1]; 1000 nM,7%
same,inhibition at 0.01 µM,[2]; 10 nM,-24%
same,inhibition at 0.1 µM,[2]; 100 nM,-17%
same,inhibition at 1 µM,[2]; 1000 nM,-11%
same,inhibition at 0.01 µM,[3]; 10 nM,26%
same,inhibition at 0.1 µM,[3]; 100 nM,16%
same,inhibition at 1 µM,[3]; 1000 nM,6%
same,inhibition at 0.01 µM,[4]; 10 nM,8%
same,inhibition at 0.1 µM,[4]; 100 nM,2%
same,inhibition at 1 µM,[4]; 1000 nM,6%
same,inhibition at 0.01 µM,[5]; 10 nM,50%
same,inhibition at 0.1 µM,[5]; 100 nM,83%
same,inhibition at 1 µM,[5]; 1000 nM,93%
same,inhibition at 0.01 µM,[6]; 10 nM,13%
same,inhibition at 0.1 µM,[6]; 100 nM,1%
same,inhibition at 1 µM,[6]; 1000 nM,-2%
same,inhibition at 0.01 µM,[7]; 10 nM,6%
same,inhibition at 0.1 µM,[7]; 100 nM,13%
same,inhibition at 1 µM,[7]; 1000 nM,22%
same,inhibitory rate on the other 380 kinases tested,"[8]; 10 nM, all 380 kinases",less than 50%
same,selectivity for MK2 over the other tested kinases,[8]; 91.8% of total tested kinases,more than 434 fold
same,Inhibition rate,"[8]; ACTR2(h), 10 nM",-9%
same,Inhibition rate,"[8]; ACTR2(h), 100 nM",-11%
same,Inhibition rate,"[8]; ACTR2(h), 1000 nM",-8%
same,Inhibition rate,"[8]; MAPK1(h), 10 nM",-1%
same,Inhibition rate,"[8]; MAPK1(h), 100 nM",0%
same,Inhibition rate,"[8]; MAPK1(h), 1000 nM",7%
same,Inhibition rate,"[8]; PKCβII(h), 10 nM",-1%
same,Inhibition rate,"[8]; PKCβII(h), 100 nM",4%
same,Inhibition rate,"[8]; PKCβII(h), 1000 nM",6%
same,Inhibition rate,"[8]; PKG1β(h), 10 nM",7%
same,Inhibition rate,"[8]; PKG1β(h), 100 nM",10%
same,Inhibition rate,"[8]; PKG1β(h), 1000 nM",5%
